Assay results published in the supplement of paper PMC10307832.

Tests used:
Assay in all cases: relative viability (nuclei count vs DMSO), 5 days (fraction); higher = more cells survive
IPA-3 + Foretinib = compound: C1=CC=C2C(=C1)C=CC(=C2SSC3=C(C=CC4=CC=CC=C43)O)O [IPA-3] + COc1cc2c(Oc3ccc(NC(=O)C4(C(=O)Nc5ccc(F)cc5)CC4)cc3F)ccnc2cc1OCCCN1CCOCC1 [Foretinib] (partner 0.25 µM)
In short: (§1)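 Relative viability equals treated-well nuclei counts divided by vehicle-well nuclei counts. Counts came from 4× images of lung cancer cell lines grown in 1536-well plates for 5 days after pin-tool dosing on the day after seeding. Dosing used one drug alone or a fixed anchor-drug dose plus five library-drug doses (not always all listed) in √10 steps, and values are medians of duplicate plates.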

Doramapimod + Navitoclax = compound: Cc1ccc(-n2nc(C(C)(C)C)cc2NC(=O)Nc2ccc(OCCN3CCOCC3)c3ccccc23)cc1 [Doramapimod] + CC1(C)CCC(c2ccc(Cl)cc2)=C(CN2CCN(c3ccc(C(=O)NS(=O)(=O)c4ccc(N[C@H](CCN5CCOCC5)CSc5ccccc5)c(S(=O)(=O)C(F)(F)F)c4)cc3)CC2)C1 [Navitoclax] (partner 0.5 µM)
In short: as §1

Doramapimod + Alpelisib = compound: Cc1ccc(-n2nc(C(C)(C)C)cc2NC(=O)Nc2ccc(OCCN3CCOCC3)c3ccccc23)cc1 [Doramapimod] + Cc1nc(NC(=O)N2CCC[C@H]2C(N)=O)sc1-c1ccnc(C(C)(C)C(F)(F)F)c1 [Alpelisib] (partner 2 µM)
In short: as §1

RAF265 + Trametinib = compound: Cn1c(Nc2ccc(C(F)(F)F)cc2)nc2cc(Oc3ccnc(-c4ncc(C(F)(F)F)[nH]4)c3)ccc21 [RAF265] + CC(=O)Nc1cccc(-n2c(=O)n(C3CC3)c(=O)c3c(Nc4ccc(I)cc4F)n(C)c(=O)c(C)c32)c1 [Trametinib] (partner 0.02 µM)
In short: as §1

Cell Line	relative viability (IPA-3 + Foretinib; first compound 0.2 µM)	relative viability (IPA-3 + Foretinib; first compound 0.6325 µM)	relative viability (IPA-3 + Foretinib; first compound 2 µM)	relative viability (IPA-3 + Foretinib; first compound 6.325 µM)	relative viability (IPA-3 + Foretinib; first compound 20 µM)	relative viability (Doramapimod + Navitoclax; first compound 0.02 µM)	relative viability (Doramapimod + Navitoclax; first compound 0.06325 µM)	relative viability (Doramapimod + Navitoclax; first compound 0.2 µM)	relative viability (Doramapimod + Navitoclax; first compound 0.6325 µM)	relative viability (Doramapimod + Navitoclax; first compound 2 µM)	relative viability (Doramapimod + Alpelisib; first compound 0.02 µM)	relative viability (Doramapimod + Alpelisib; first compound 0.06325 µM)	relative viability (Doramapimod + Alpelisib; first compound 0.2 µM)	relative viability (Doramapimod + Alpelisib; first compound 0.6325 µM)	relative viability (Doramapimod + Alpelisib; first compound 2 µM)	relative viability (RAF265 + Trametinib; first compound 0.01 µM)	relative viability (RAF265 + Trametinib; first compound 0.03162 µM)	relative viability (RAF265 + Trametinib; first compound 0.1 µM)	relative viability (RAF265 + Trametinib; first compound 0.3162 µM)	relative viability (RAF265 + Trametinib; first compound 1 µM)
LK-2	1.25	1.31	1.3	1.63	1.5	0.731	0.757	0.695	0.72	0.741	1.03	0.906	0.751	0.737	0.76	0.721	0.628	0.787	0.799	0.53
LOU-NH91	0.955	0.861	0.942	0.916	1.07	0.683	0.588	0.627	0.63	0.452	0.794	0.728	0.728	0.893	0.574	0.837	0.756	0.717	0.71	0.636
LU99A	0.877	0.734	0.687	0.763	0.921	0.662	0.645	0.818	0.977	0.798	0.523	0.484	0.486	0.484	0.441	0.551	0.469	0.314	0.288	0.21
LXF-289	1	0.919	0.993	1.01	1.11	0.954	1	0.939	0.903	0.942	1.03	0.992	1.01	1.02	0.956	0.667	0.692	0.551	0.488	0.339
NCI-H23	1.03	1.02	0.971	1	1.17	0.905	0.794	0.763	0.882	0.832	0.711	0.64	0.753	0.867	0.59	0.404	0.262	0.239	0.239	0.17
NCI-H322M	1.05	0.961	1.15	1.04	1.13	1.12	1.16	1.16	1.33	1.2	0.774	0.734	0.785	0.801	0.933	0.496	0.421	0.486	0.507	0.409
NCI-H441	1.14	1.2	0.79	0.837	1	0.857	–	0.558	0.818	0.353	0.694	–	0.813	0.704	0.779	0.598	0.504	0.461	0.436	0.457
NCI-H460	1.12	0.924	0.851	0.929	0.931	1.12	1.01	1.14	1.13	1.01	0.446	0.467	0.372	0.441	0.357	0.238	0.23	0.133	0.156	0.0601
NCI-H520	0.885	0.757	0.743	0.613	0.837	1	1.11	1.08	1.18	1.02	0.883	0.822	0.954	0.832	0.807	0.684	0.65	0.508	0.519	0.338
NCI-H596	0.691	0.945	0.923	0.881	1.06	0.927	0.809	0.933	1.01	0.876	0.486	0.502	0.469	0.529	0.431	0.836	0.75	0.813	0.826	0.638
NCI-H647	1.36	1.26	1.08	1.03	1.12	1.09	1.13	1.12	1.09	1.12	1.26	1.15	1.14	1.12	1.03	0.46	0.451	0.277	0.222	0.19
NCI-H727	0.898	0.81	1.17	0.615	0.73	0.467	0.337	0.501	0.481	0.382	0.5	0.587	0.598	0.675	0.528	0.403	0.371	0.392	0.334	0.317
NCI-H838	1.22	1	1.1	1.03	1.14	1.16	1.19	1.26	1.32	1.12	0.973	0.953	1	1.09	0.971	0.542	0.511	0.518	0.462	0.39
NCI-H1355	1	0.953	1.02	0.946	1.08	0.943	0.947	0.956	0.923	0.867	0.739	0.793	0.754	0.868	0.732	0.438	0.355	0.383	0.283	0.206
NCI-H1395	1.07	0.901	0.98	0.934	1.02	1.17	1.12	1.1	1.12	1.06	1.07	1.08	0.93	1.14	0.938	1.12	0.933	1.1	0.968	0.685
NCI-H1437	1.37	1.23	1.32	1.2	1.35	1.09	1.1	1.16	1.09	1.05	0.904	1.01	0.915	0.926	0.965	0.544	0.552	0.505	0.716	0.493

Cell Line	relative viability (IPA-3 + Foretinib; first compound 0.2 µM)	relative viability (IPA-3 + Foretinib; first compound 0.6325 µM)	relative viability (IPA-3 + Foretinib; first compound 2 µM)	relative viability (IPA-3 + Foretinib; first compound 6.325 µM)	relative viability (IPA-3 + Foretinib; first compound 20 µM)	relative viability (Doramapimod + Navitoclax; first compound 0.02 µM)	relative viability (Doramapimod + Navitoclax; first compound 0.06325 µM)	relative viability (Doramapimod + Navitoclax; first compound 0.2 µM)	relative viability (Doramapimod + Navitoclax; first compound 0.6325 µM)	relative viability (Doramapimod + Navitoclax; first compound 2 µM)	relative viability (Doramapimod + Alpelisib; first compound 0.02 µM)	relative viability (Doramapimod + Alpelisib; first compound 0.06325 µM)	relative viability (Doramapimod + Alpelisib; first compound 0.2 µM)	relative viability (Doramapimod + Alpelisib; first compound 0.6325 µM)	relative viability (Doramapimod + Alpelisib; first compound 2 µM)	relative viability (RAF265 + Trametinib; first compound 0.01 µM)	relative viability (RAF265 + Trametinib; first compound 0.03162 µM)	relative viability (RAF265 + Trametinib; first compound 0.1 µM)	relative viability (RAF265 + Trametinib; first compound 0.3162 µM)	relative viability (RAF265 + Trametinib; first compound 1 µM)
NCI-H1651	0.981	0.717	0.967	0.952	1.04	0.624	0.911	0.996	1.04	1.06	0.788	0.987	0.876	0.962	0.859	0.797	0.808	0.795	0.796	0.734
NCI-H1666	0.988	0.926	0.976	1.01	1.16	0.991	0.838	1.04	0.918	0.789	0.834	1.01	0.882	1.03	1.01	0.89	0.852	0.784	0.839	0.656
NCI-H1734	0.972	0.803	0.845	0.92	0.934	0.723	0.799	0.692	0.77	0.572	0.603	0.567	0.559	0.629	0.533	0.722	0.526	0.564	0.535	0.276
NCI-H1755	0.923	0.884	0.879	0.85	0.952	0.997	1	1	1.06	0.968	0.907	0.884	0.989	0.98	0.922	0.753	0.727	0.688	0.647	0.467
NCI-H1793	0.918	0.67	0.656	0.757	1.05	0.545	0.303	0.378	0.416	0.502	0.788	0.595	0.786	0.643	0.595	0.403	0.44	0.303	0.232	0.237
NCI-H1915	1.13	1.06	1.08	1.11	1.11	0.843	0.838	0.85	0.801	0.761	1.04	1.1	1.12	1.11	1.08	0.327	0.275	0.23	0.151	0.1
NCI-H1944	1.05	0.856	0.879	0.938	0.928	1	1.11	1.05	1.17	1.08	0.756	0.829	0.765	0.829	0.71	0.454	0.453	0.386	0.324	0.246
NCI-H1975	1.01	0.887	1.03	0.873	0.935	1.2	1.19	0.991	1.16	0.981	0.756	0.674	0.69	0.77	0.676	0.422	0.286	0.22	0.173	0.191
NCI-H1993	0.833	0.654	0.813	0.776	0.728	0.952	0.749	0.966	0.918	0.834	0.765	0.617	0.707	0.626	0.664	0.585	0.619	0.542	0.384	0.435
NCI-H2009	1.32	1.15	1.23	1.16	1.29	1.25	1.18	1.2	1.29	1.19	1.23	1.22	1.22	1.13	1.13	0.29	0.303	0.189	0.188	0.165
NCI-H2023	0.856	0.666	0.995	0.853	1.1	1.09	1.08	0.892	1	0.948	0.498	0.54	0.503	0.617	0.503	0.608	0.508	0.533	0.55	0.266
NCI-H2085	0.948	0.824	1.28	0.949	1.04	1.22	1.05	1.07	1.3	1.2	1.03	0.928	0.839	0.913	0.93	0.45	0.524	0.514	0.511	0.545
NCI-H2087	1.26	1.12	1.05	1.03	1.18	0.955	0.98	0.933	1.1	0.888	1.2	1.25	1.05	1.23	0.838	0.195	0.148	0.154	0.161	0.129
NCI-H2126	1.21	1.23	0.904	1.17	1.18	0.791	0.843	0.743	0.881	0.738	0.743	0.733	0.733	0.742	0.662	0.635	0.526	0.539	0.506	0.342
NCI-H2170	1.03	0.942	1.04	0.948	1.13	0.512	0.495	0.539	0.601	0.478	0.802	0.823	0.769	0.915	0.741	0.928	0.86	0.792	0.666	0.56
